The values below come from US7524869B2, “Taxanes having a C10 ester substituent” (Florida State University Research Foundation, Inc., priority 2000, dated 2009).

Test system in the first data set: not given
Assay: not given
Settings: not given
For orientation: melting point means the temperature, or range, at which the solid turns liquid. `CCC(=O)O[C@H]1C(=O)[C@@]2(C)C([C@H](OC(=O)c3ccccc3)[C@]3(O)C[C@H](OC(=O)[C@H](O)[C@@H](NC(=O)c4ccccc4)c4cccs4)C(C)=C1C3(C)C)[C@]1(OC(C)=O)CO[C@@H]1C[C@@H]2O` (stereo partly drawn) [Compound 0687, 3′-Desphenyl-3′-(2-thienyl)-10-propionyl-10-deacetyl taxol] returned a melting point of 154 to 155 °C.

The subject of the next data set is HCT116. Nature of the data set: In vitro cytotoxicity measured by the cell colony formation assay. Format: cell-based. Particulars: HCT116 cells, 72 h drug incubation, colonies counted after 7 days; ID50 = drug concentration producing 50% inhibition of colony formation; read-out: IN VITRO ID 50 (nm) HCT116.
For the molecule `CCC(=O)O[C@H]1C(=O)[C@@]2(C)C([C@H](OC(=O)c3ccccc3)[C@]3(O)C[C@H](OC(=O)[C@H](O)[C@@H](NC(=O)c4ccco4)c4cccs4)C(C)=C1C3(C)C)[C@]1(OC(C)=O)CO[C@@H]1C[C@@H]2O` (stereo partly drawn) [Compound 3053], the IC50 is less than 1 nM. For the molecule `C/C=C/C(=O)O[C@H]1C(=O)[C@@]2(C)C([C@H](OC(=O)c3ccccc3)[C@]3(O)C[C@H](OC(=O)[C@H](O)[C@@H](NC(=O)OC(C)(C)C)c4ccccn4)C(C)=C1C3(C)C)[C@]1(OC(C)=O)CO[C@@H]1C[C@@H]2O` (stereo partly drawn) [Compound 2348], the IC50 was less than 1 nM. Same read-out and setting: the result for `CCOC(=O)N[C@@H](c1cccs1)[C@@H](O)C(=O)O[C@H]1C[C@@]2(O)[C@@H](OC(=O)c3ccccc3)C3[C@](C)(C(=O)[C@H](OC(=O)C4CC4)C(=C1C)C2(C)C)[C@@H](O)C[C@H]1OC[C@@]31OC(C)=O` (stereo partly drawn) [Compound 4051] reads less than 1 nM; that for `CC(=O)O[C@@]12CO[C@@H]1C[C@H](O)[C@@]1(C)C(=O)[C@H](OC(=O)C(C)C)C3=C(C)[C@@H](OC(=O)[C@H](O)[C@@H](NC(=O)OC(C)(C)C)c4ccncc4)C[C@@](O)([C@@H](OC(=O)c4ccccc4)C12)C3(C)C` (stereo partly drawn) [Compound 2255], less than 1 nM.

Turning to `CC(=O)OC12COC1CC(O)C1(C)C(=O)C(OC(=O)c3cccs3)C3=C(C)C(OC(=O)C(O)C(NC(=O)OC(C)(C)C)c4ccncc4)CC(O)(C(OC(=O)c4ccccc4)C21)C3(C)C` (stereo not drawn) [Compound 1954], the IC50 is less than 1 nM.

For the molecule `CCC(=O)O[C@H]1C(=O)[C@@]2(C)C([C@H](OC(=O)c3ccccc3)[C@]3(O)C[C@H](OC(=O)[C@H](O)[C@@H](NC(=O)OC(C)(C)C)c4ccccc4)C(C)=C1C3(C)C)[C@]1(OC(C)=O)CO[C@@H]1C[C@@H]2O` (stereo partly drawn) [Compound 0611], the IC50 was less than 10 nM. Regarding `CCC(=O)O[C@H]1C(=O)[C@@]2(C)C([C@H](OC(=O)c3ccccc3)[C@]3(O)C[C@H](OC(=O)[C@H](O)[C@@H](NC(=O)c4cccs4)c4ccco4)C(C)=C1C3(C)C)[C@]1(OC(C)=O)CO[C@@H]1C[C@@H]2O` (stereo partly drawn) [Compound 3644], the IC50 is less than 1 nM. As for `CCC(=O)O[C@H]1C(=O)[C@@]2(C)C([C@H](OC(=O)c3ccccc3)[C@]3(O)C[C@H](OC(=O)[C@H](O)[C@@H](NC(=O)OC(C)(C)CC)c4ccco4)C(C)=C1C3(C)C)[C@]1(OC(C)=O)CO[C@@H]1C[C@@H]2O` (stereo partly drawn) [Compound 6522], the IC50 was less than 1 nM. For `CCCC(=O)O[C@H]1C(=O)[C@@]2(C)C([C@H](OC(=O)c3ccccc3)[C@]3(O)C[C@H](OC(=O)[C@H](O)[C@@H](NC(=O)c4cccnc4)c4cccs4)C(C)=C1C3(C)C)[C@]1(OC(C)=O)CO[C@@H]1C[C@@H]2O` (stereo partly drawn) [Compound 4190], the IC50 was less than 10 nM.

On to `C/C=C/C(=O)O[C@H]1C(=O)[C@@]2(C)C([C@H](OC(=O)c3ccccc3)[C@]3(O)C[C@H](OC(=O)[C@H](O)[C@@H](NC(=O)OC(C)(C)C)c4cccnc4)C(C)=C1C3(C)C)[C@]1(OC(C)=O)CO[C@@H]1C[C@@H]2O` (stereo partly drawn) [Compound 2353], for which the IC50 was less than 10 nM. On to `CC(=O)OC12COC1CC(O)C1(C)C(=O)C(OC(=O)c3ccco3)C3=C(C)C(OC(=O)C(O)C(NC(=O)OC(C)(C)C)C4CCC4)CC(O)(C(OC(=O)c4ccccc4)C21)C3(C)C` (stereo not drawn) [Compound 2199], for which the IC50 is less than 10 nM. With `CC(=O)OC12COC1CC(O)C1(C)C(=O)C(OC(=O)c3cccs3)C3=C(C)C(OC(=O)C(O)C(NC(=O)OC(C)(C)C)C(C)C)CC(O)(C(OC(=O)c4ccccc4)C21)C3(C)C` (stereo not drawn) [Compound 1964], the IC50 was less than 10 nM. For the molecule `CC(=O)OC12COC1CC(O)C1(C)C(=O)C(OC(=O)c3ccco3)C3=C(C)C(OC(=O)C(O)C(NC(=O)OC(C)(C)C)c4ccoc4)CC(O)(C(OC(=O)c4ccccc4)C21)C3(C)C` (stereo not drawn) [Compound 2159], the IC50 was less than 1 nM.

Take `CCOC(=O)N[C@@H](c1ccco1)[C@@H](O)C(=O)O[C@H]1C[C@@]2(O)[C@@H](OC(=O)c3ccccc3)C3[C@](C)(C(=O)[C@H](OC(=O)CC)C(=C1C)C2(C)C)[C@@H](O)C[C@H]1OC[C@@]31OC(C)=O` (stereo partly drawn) [Compound 3535]: the IC50 is less than 1 nM. `CCCC(=O)O[C@H]1C(=O)[C@@]2(C)C([C@H](OC(=O)c3ccccc3)[C@]3(O)C[C@H](OC(=O)[C@H](O)[C@@H](NC(=O)c4ccccc4)c4cccs4)C(C)=C1C3(C)C)[C@]1(OC(C)=O)CO[C@@H]1C[C@@H]2O` (stereo partly drawn) [Compound 3258]: the IC50 was less than 1 nM. For `CC(=O)OC12COC1CC(O)C1(C)C(=O)C(OC(=O)c3cccs3)C3=C(C)C(OC(=O)C(O)C(NC(=O)OC(C)(C)C)c4ccccc4)CC(O)(C(OC(=O)c4ccccc4)C21)C3(C)C` (stereo not drawn) [Compound 1988], the IC50 was less than 10 nM.

`CCCC(=O)N[C@@H](c1cccs1)[C@@H](O)C(=O)O[C@H]1C[C@@]2(O)[C@@H](OC(=O)c3ccccc3)C3[C@](C)(C(=O)[C@H](OC(=O)CCC)C(=C1C)C2(C)C)[C@@H](O)C[C@H]1OC[C@@]31OC(C)=O` (stereo partly drawn) [Compound 3148]: the IC50 is less than 1 nM. Regarding `CCCC(=O)O[C@H]1C(=O)[C@@]2(C)C([C@H](OC(=O)c3ccccc3)[C@]3(O)C[C@H](OC(=O)[C@H](O)[C@@H](NC(=O)OC(C)(C)C)c4ccoc4)C(C)=C1C3(C)C)[C@]1(OC(C)=O)CO[C@@H]1C[C@@H]2O` (stereo partly drawn) [Compound 0999], the IC50 is less than 1 nM. For the molecule `CC(=O)O[C@@]12CO[C@@H]1C[C@H](O)[C@@]1(C)C(=O)[C@H](OC(=O)C(C)C)C3=C(C)[C@@H](OC(=O)[C@H](O)[C@@H](NC(=O)OC(C)(C)C)c4ccsc4)C[C@@](O)([C@@H](OC(=O)c4ccccc4)C12)C3(C)C` (stereo partly drawn) [Compound 2291], the IC50 was less than 1 nM.

In the case of `CCCC(=O)O[C@H]1C(=O)[C@@]2(C)C([C@H](OC(=O)c3ccccc3)[C@]3(O)C[C@H](OC(=O)[C@H](O)[C@@H](NC(=O)C=C(C)C)c4cccs4)C(C)=C1C3(C)C)[C@]1(OC(C)=O)CO[C@@H]1C[C@@H]2O` (stereo partly drawn) [Compound 4344], the IC50 was less than 1 nM. Consider `CCC(=O)O[C@H]1C(=O)[C@@]2(C)C([C@H](OC(=O)c3ccccc3)[C@]3(O)C[C@H](OC(=O)[C@H](O)[C@@H](NC(=O)c4ccccc4)c4ccoc4)C(C)=C1C3(C)C)[C@]1(OC(C)=O)CO[C@@H]1C[C@@H]2O` (stereo partly drawn) [Compound 0670], for which the IC50 was less than 1 nM. As to `CC(=O)OC12COC1CC(O)C1(C)C(=O)C(OC(=O)c3ccco3)C3=C(C)C(OC(=O)C(O)C(NC(=O)OC(C)(C)C)c4ccncc4)CC(O)(C(OC(=O)c4ccccc4)C21)C3(C)C` (stereo not drawn) [Compound 2132], the IC50 is less than 1 nM.

As to `CCC(=O)O[C@H]1C(=O)[C@@]2(C)C([C@H](OC(=O)c3ccccc3)[C@]3(O)C[C@H](OC(=O)[C@H](O)[C@@H](NC(=O)OC(C)(C)C)c4cccnc4)C(C)=C1C3(C)C)[C@]1(OC(C)=O)CO[C@@H]1C[C@@H]2O` (stereo partly drawn) [Compound 0517], the IC50 is less than 10 nM.

Turning to `CCCC(=O)O[C@H]1C(=O)[C@@]2(C)C([C@H](OC(=O)c3ccccc3)[C@]3(O)C[C@H](OC(=O)[C@H](O)[C@H](C=C(C)C)NC(=O)OC(C)(C)C)C(C)=C1C3(C)C)[C@]1(OC(C)=O)CO[C@@H]1C[C@@H]2O` (stereo partly drawn) [Compound 0947], the IC50 was less than 1 nM. As to `CCC(=O)O[C@H]1C(=O)[C@@]2(C)C([C@H](OC(=O)c3ccccc3)[C@]3(O)C[C@H](OC(=O)[C@H](O)[C@@H](NC(=O)OC(C)(C)C)C4CCC4)C(C)=C1C3(C)C)[C@]1(OC(C)=O)CO[C@@H]1C[C@@H]2O` (stereo partly drawn) [Compound 0596], the IC50 was less than 10 nM.

For `CC(=O)O[C@@]12CO[C@@H]1C[C@H](O)[C@@]1(C)C(=O)[C@H](OC(=O)C3CC3)C3=C(C)[C@@H](OC(=O)[C@H](O)[C@@H](NC(=O)OC(C)(C)C)C4CC4)C[C@@](O)([C@@H](OC(=O)c4ccccc4)C12)C3(C)C` (stereo partly drawn) [Compound 0860], the IC50 is less than 1 nM. In the case of `CC(=O)O[C@@]12CO[C@@H]1C[C@H](O)[C@@]1(C)C(=O)[C@H](OC(=O)C3CC3)C3=C(C)[C@@H](OC(=O)[C@H](O)[C@@H](NC(=O)c4ccco4)c4ccco4)C[C@@](O)([C@@H](OC(=O)c4ccccc4)C12)C3(C)C` (stereo partly drawn) [Compound 3866], the IC50 was less than 1 nM.

As for `CCCC(=O)O[C@H]1C(=O)[C@@]2(C)C([C@H](OC(=O)c3ccccc3)[C@]3(O)C[C@H](OC(=O)[C@H](O)[C@@H](NC(=O)c4ccco4)c4ccco4)C(C)=C1C3(C)C)[C@]1(OC(C)=O)CO[C@@H]1C[C@@H]2O` (stereo partly drawn) [Compound 3686], the IC50 was less than 1 nM.

Staying with this data set, now noted: Homo sapiens, HCT-116; read-out: IN VITRO ID 50 (nm) HCT116.
As for `CCC(=O)O[C@H]1C(=O)[C@@]2(C)C([C@H](OC(=O)c3ccccc3)[C@]3(O)C[C@H](OC(=O)[C@H](O)[C@@H](NC(=O)c4ccccc4)c4cccs4)C(C)=C1C3(C)C)[C@]1(OC(C)=O)CO[C@@H]1C[C@@H]2O` (stereo partly drawn) [Compound 0687, 3′-Desphenyl-3′-(2-thienyl)-10-propionyl-10-deacetyl taxol], the IC50 is less than 1 nM.
